Laboratory results from patent US12351574B2, “Selective ligands for modulation of GIRK channels” (Northeastern University, priority 2018, dated 2025).

Biological target: T1, GIRK1/2 (UniProt P48542+P48549)
T1 sequence (P48549 1-501): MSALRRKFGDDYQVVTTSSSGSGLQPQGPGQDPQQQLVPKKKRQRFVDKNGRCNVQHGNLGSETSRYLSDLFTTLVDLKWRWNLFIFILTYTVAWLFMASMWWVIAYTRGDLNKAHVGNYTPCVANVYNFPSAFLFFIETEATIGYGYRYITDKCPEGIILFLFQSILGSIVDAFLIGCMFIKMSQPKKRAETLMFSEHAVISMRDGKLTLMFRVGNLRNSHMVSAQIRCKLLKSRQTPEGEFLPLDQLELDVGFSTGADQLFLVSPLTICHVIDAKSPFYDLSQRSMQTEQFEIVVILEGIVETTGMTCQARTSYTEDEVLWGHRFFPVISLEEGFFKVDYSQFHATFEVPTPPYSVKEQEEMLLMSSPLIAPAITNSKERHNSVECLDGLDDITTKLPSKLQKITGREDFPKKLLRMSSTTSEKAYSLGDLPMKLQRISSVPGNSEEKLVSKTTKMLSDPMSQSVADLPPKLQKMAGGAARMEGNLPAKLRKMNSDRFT
T1 sequence (P48542 1-425): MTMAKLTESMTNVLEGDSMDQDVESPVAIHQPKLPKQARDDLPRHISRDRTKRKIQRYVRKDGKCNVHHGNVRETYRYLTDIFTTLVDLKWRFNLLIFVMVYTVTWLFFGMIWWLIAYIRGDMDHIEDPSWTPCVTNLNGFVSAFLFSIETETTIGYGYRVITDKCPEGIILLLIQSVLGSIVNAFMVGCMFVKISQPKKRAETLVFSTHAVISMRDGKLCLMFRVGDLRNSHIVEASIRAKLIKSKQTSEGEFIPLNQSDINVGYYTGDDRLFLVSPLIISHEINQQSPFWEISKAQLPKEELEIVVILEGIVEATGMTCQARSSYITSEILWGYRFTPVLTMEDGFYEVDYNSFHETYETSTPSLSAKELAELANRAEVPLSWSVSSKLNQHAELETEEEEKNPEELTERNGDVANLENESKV
Assay: concentration-response, whole-cell patch clamp in HEK-293 cells expressing GIRK1/2
Type: cell-based, human GIRK1, mouse GIRK2
Set-up: expressed in transfected cells
Conditions: FIGS. 5A-5C
Procedure: Culture of HEK293 cells: HEK293-T cells were obtained from ATCC and maintained in DMEM medium supplemented with 10% FBS and 1% penicillin and streptomycin (Hyclone). For patch-clamp studies, cells were seeded on glass coverslips and transfected 24-hours later using a polyethylenimine solution (1 mg/ml) at a ratio of 8 μl per μg of DNA. To study GIRK-currents, cells were transfected with 0.75 μg each of plasmids encoding GIRK1, GIRK2 or GIRK4 as indicated. In the optogenetic experiments, cells were co-transfected with plasmids encoding 5-ptaseOCRL and CIBN-CAAX, as previously described. 5-ptaseOCRL and CIBN-CAAX were a kind gift from the DeCamilli lab, Yale CT. All experiments were performed at room temperature 24-36 hours post transfection.
Patch-clamp recording: Whole-cell currents were recorded with an Axopatch 200B amplifier (Molecular Devices) controlled via a USB-interface (National Instruments) using WinWCP software (University of Strathclyde). […] The barium-sensitive component of the current, observed when cells were perfused with the high-K^+ buffer, was analyzed and was determined by perfusing 5 mM BaCl2 in the high-K^+ buffer at the end of each experiment. […]
Patch-clamp recording: Whole-cell currents were recorded with an Axopatch 200B amplifier (Molecular Devices) controlled via a USB-interface (National Instruments) using WinWCP software (University of Strathclyde). […]

SMILES: Cc1cc(NC(=O)Nc2ccc(Br)s2)n(-c2ccccc2)n1 [GAT1508, 1-(5-bromothiophen-2-yl)-3-(3-methyl-1-phenyl-1H-pyrazol-5-yl)urea]
- potency and efficacy compared to ML297 or GAT1521 (in words): highest potency and efficacy
